Reference: ChEMBL document CHEMBL4321828, “Recent developments on (-)-colchicine derivatives: Synthesis and structure-activity relationship” (Eur J Med Chem, 2020)

Tests used:
[1] = tested on: A2780; assay: Antiproliferative activity against human A2780 cells assessed as reduction in cell viability by MTT assay; assay type: functional, cell-based
[2] = tested on: Bel-7402; assay: Antiproliferative activity against human Bel7402 cells assessed as reduction in cell viability by MTT assay; assay type: functional, cell-based
[3] = tested on: A549; assay: Antiproliferative activity against human A549 cells assessed as reduction in cell viability by MTT assay; assay type: functional, cell-based
[4] = tested on: MCF7; assay: Antiproliferative activity against human MCF7 cells assessed as reduction in cell viability by MTT assay; assay type: functional, cell-based
[5] = tested on: HCT-116; assay: Antiproliferative activity against human HCT116 cells assessed as reduction in cell viability incubated for 48 hrs by MTT assay; assay type: functional, cell-based; details: HCT-116, 48 h
[6] = target: ATP-dependent translocase ABCB1 (Homo sapiens, UniProt P08183); assay: Induction of P-gp in human LS180 cells assessed as […] in intracellular accumulation of Rh123 at 100 nM using Rho123 as substrate preincubated for 48 hrs followed by addition of Rh123 and measured after 90 mins by fluorescence based assay relative to control; assay type: cell-based; details: ls180, 48 h preincubation, then 1.5 h with Rh123, 0.1 µM
Sequence of ATP-dependent translocase ABCB1 (P08183 whole entry): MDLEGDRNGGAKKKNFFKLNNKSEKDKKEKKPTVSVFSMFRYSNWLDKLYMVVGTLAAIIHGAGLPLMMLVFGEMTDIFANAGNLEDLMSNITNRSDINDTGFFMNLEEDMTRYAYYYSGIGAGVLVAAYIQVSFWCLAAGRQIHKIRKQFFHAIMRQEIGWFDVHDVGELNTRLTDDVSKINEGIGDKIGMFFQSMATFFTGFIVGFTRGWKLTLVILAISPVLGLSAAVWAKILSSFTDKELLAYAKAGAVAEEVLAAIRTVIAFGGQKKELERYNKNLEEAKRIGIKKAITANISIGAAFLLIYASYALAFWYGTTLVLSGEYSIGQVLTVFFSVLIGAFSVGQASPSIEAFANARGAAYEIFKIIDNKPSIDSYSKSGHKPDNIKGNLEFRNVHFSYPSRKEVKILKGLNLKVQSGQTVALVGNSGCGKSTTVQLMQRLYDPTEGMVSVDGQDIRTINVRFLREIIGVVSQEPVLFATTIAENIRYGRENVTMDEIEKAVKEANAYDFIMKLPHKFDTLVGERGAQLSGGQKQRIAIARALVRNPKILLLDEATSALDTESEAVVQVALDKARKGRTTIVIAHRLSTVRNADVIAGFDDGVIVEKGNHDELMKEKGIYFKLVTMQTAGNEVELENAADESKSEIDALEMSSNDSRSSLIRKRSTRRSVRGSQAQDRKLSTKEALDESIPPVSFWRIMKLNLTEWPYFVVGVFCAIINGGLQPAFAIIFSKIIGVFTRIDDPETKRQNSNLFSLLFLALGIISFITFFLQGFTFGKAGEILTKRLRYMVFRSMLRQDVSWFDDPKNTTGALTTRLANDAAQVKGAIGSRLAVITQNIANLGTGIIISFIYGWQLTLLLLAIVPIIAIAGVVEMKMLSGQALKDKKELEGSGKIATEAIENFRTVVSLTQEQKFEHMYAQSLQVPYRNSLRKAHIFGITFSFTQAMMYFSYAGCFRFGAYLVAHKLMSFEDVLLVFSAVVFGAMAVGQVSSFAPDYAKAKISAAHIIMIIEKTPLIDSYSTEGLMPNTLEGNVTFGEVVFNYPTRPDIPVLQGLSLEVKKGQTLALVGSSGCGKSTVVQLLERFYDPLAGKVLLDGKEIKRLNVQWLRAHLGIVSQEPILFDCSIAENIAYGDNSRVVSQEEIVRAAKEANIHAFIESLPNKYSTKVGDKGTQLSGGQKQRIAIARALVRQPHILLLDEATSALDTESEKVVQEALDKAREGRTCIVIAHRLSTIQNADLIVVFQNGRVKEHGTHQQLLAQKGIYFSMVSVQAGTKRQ

[7] = tested on: COLO 205; assay: Antiproliferative activity against human COLO205 cells assessed as reduction in cell viability incubated for 48 hrs by MTT assay; assay type: functional, cell-based; details: COLO 205, 48 h
[8] = tested on: MCF7; assay: Antiproliferative activity against human MCF7 cells assessed as reduction in cell viability incubated for 24 hrs by SRB assay; assay type: functional, cell-based; details: MCF7, 24 h
[9] = tested on: SK-MEL-2; assay: Antiproliferative activity against human SK-MEL-2 cells assessed as reduction in cell viability incubated for 24 hrs by SRB assay; assay type: functional, cell-based; details: SK-MEL-2, 24 h
[10] = tested on: SK-OV-3; assay: Antiproliferative activity against human SKOV3 cells assessed as reduction in cell viability incubated for 24 hrs by SRB assay; assay type: functional, cell-based; details: SK-OV-3, 24 h
[11] = tested on: HCT-15; assay: Antiproliferative activity against human HCT15 cells assessed as reduction in cell viability incubated for 24 hrs by SRB assay; assay type: functional, cell-based; details: HCT-15, 24 h
[12] = tested on: A549; assay: Antiproliferative activity against human A549 cells assessed as reduction in cell viability incubated for 24 hrs by SRB assay; assay type: functional, cell-based; details: A549, 24 h
[13] = Antiproliferative activity against human KB-8-5-11 cells assessed as reduction in cell viability after 96 hrs by methylene blue staining based spectrophotometric method; assay type: functional
[14] = tested on: KB 3-1; assay: Antiproliferative activity against human KB3-1 cells assessed as reduction in cell viability after 96 hrs by methylene blue staining based spectrophotometric method; assay type: functional; details: KB 3-1, 96 h
[15] = tested on: MDA-MB-231; assay: Antiproliferative activity against human MDA-MB-231 cells assessed as reduction in cell viability; assay type: functional, cell-based
[16] = tested on: DLD-1; assay: Antiproliferative activity against human DLD1 cells assessed as reduction in cell viability; assay type: functional, cell-based
[17] = tested on: LoVo; assay: Antiproliferative activity against human LoVo cells assessed as reduction in cell viability; assay type: functional, cell-based

| SMILES | IC50 [5] [nM] | Activity [6] [%] | IC50 [7] [nM] | IC50 [8] [nM] | IC50 [9] [nM] | IC50 [10] [nM] | IC50 [11] [nM] | IC50 [12] [nM] | also measured |
| --- | --- | --- | --- | --- | --- | --- | --- | --- | --- |
| CNc1ccc2c(cc1=O)[C@@H](NC(=O)CCC(=O)OCCCCCCO[N+](=O)[O-])CCc1cc(OC)c(OC)c(OC)c1-2 |  |  |  |  |  |  |  |  | IC50 [1]: 109 nM; IC50 [2]: 86 nM; IC50 [3]: 205 nM; IC50 [4]: 95 nM |
| CNc1ccc2c(cc1=O)[C@@H](NC(=O)CCC(=O)OCCO[N+](=O)[O-])CCc1cc(OC)c(OC)c(OC)c1-2 |  |  |  |  |  |  |  |  | IC50 [1]: 104 nM; IC50 [2]: 202 nM; IC50 [3]: 106 nM; IC50 [4]: 103 nM |
| CNc1ccc2c(cc1=O)[C@@H](NC(=O)CCC(=O)OC/C=C/CO[N+](=O)[O-])CCc1cc(OC)c(OC)c(OC)c1-2 |  |  |  |  |  |  |  |  | IC50 [1]: 205 nM; IC50 [2]: 120 nM; IC50 [3]: 135 nM; IC50 [4]: 202 nM |
| COc1cc2c(c(OC)c1OC)-c1ccc(N3CCN(C)CC3)c(=O)cc1[C@@H](NC(C)=O)CC2 | 3000 | 102.82 | 1000 |  |  |  |  |  |  |
| CCCCCCCCCCCCCC[C@H]1OC(C)(C)O[C@H]1[C@@H](NC(=O)OC(C)(C)C)C(=O)N[C@H]1CCc2cc(OC)c(OC)c(OC)c2-c2ccc(SC)c(=O)cc21 |  |  |  | 303 | 130 | 676 | 204 | 228 |  |
| COc1cc2c(c(OC)c1OC)-c1ccc(SC)c(=O)cc1[C@@H](NC(=O)CC[C@H](NC(=O)c1ccc(NCc3cnc4nc(N)nc(O)c4n3)cc1)C(=O)O)CC2 |  |  |  | 697 |  |  | 1160 | 4960 |  |
| C=C(C)[C@@H]1CC=C(C(=O)N[C@H]2CCc3cc(OC)c(OC)c(OC)c3-c3ccc(SC)c(=O)cc32)CC1 |  |  |  | 5.2 | 17.9 | 17.2 | 8.1 | 7.5 |  |
| COc1cc2c(c(OC)c1OC)-c1ccc(N3CCOCC3)c(=O)cc1[C@@H](NC(C)=O)CC2 | 5000 | 95.97 | 1200 |  |  |  |  |  |  |
| COc1cc2c(c(OC)c1OC)-c1ccc(N3CCC4c5ccccc5NC4C3)c(=O)cc1[C@@H](NC(C)=O)CC2 (some centres not stated) | 3000 | 119.7 | 800 |  |  |  |  |  |  |
| COc1cc2c(c(OC)c1OC)-c1ccc(N3CCC(c4ccccc4)CC3)c(=O)cc1[C@@H](NC(C)=O)CC2 | 1000 | 101.03 | 800 |  |  |  |  |  |  |
| COc1cc2c(c(OC)c1OC)-c1ccc(N3CCC[C@@H]3CO)c(=O)cc1[C@@H](NC(C)=O)CC2 | 10000 | 86.53 | 8000 |  |  |  |  |  |  |
| COc1cc2c(c(OC)c1OC)-c1ccc(SC)c(=O)cc1[C@@H](NC(=O)[C@H](O)[C@@H](O)[C@H](O)[C@H](O)CO)CC2 |  |  |  | 7.8 | 12.3 | 29.8 | 18.7 | 14.2 |  |
| COc1cc2c(c(OC)c1OC)-c1ccc(Nc3ccc(Cl)c(C(F)(F)F)c3)c(=O)cc1[C@@H](NC(C)=O)CC2 | 40 | 90.29 | 30 |  |  |  |  |  |  |
| COc1c(COC2CCCCO2)c2c(c(OC)c1OC)-c1ccc(OC)c(=O)cc1[C@@H](NC(C)=O)CC2 (some centres not stated) |  |  |  |  |  |  |  |  | IC50 [13]: > 1000 nM; IC50 [14]: > 1000 nM |
| COc1cc2c(c(OC)c1OC)-c1ccc(Nc3ccc(F)c(Cl)c3)c(=O)cc1[C@@H](NC(C)=O)CC2 | 700 | 90.05 | 500 |  |  |  |  |  |  |
| CNc1ccc2c(cc1=O)[C@@H](NC(=O)CCC(=O)OCCCCCO[N+](=O)[O-])CCc1cc(OC)c(OC)c(OC)c1-2 |  |  |  |  |  |  |  |  | IC50 [1]: 96 nM; IC50 [2]: 85 nM; IC50 [3]: 86 nM; IC50 [4]: 100 nM |
| COc1cc2c(c(OC)c1OC)-c1ccc(SC)c(=O)cc1[C@@H](NC(=O)Cc1ccccc1Nc1c(Cl)cccc1Cl)CC2 |  |  |  | 296 | 1050 | 1500 | 306 | 520 |  |
| COc1cc(/C=C/C(=O)N[C@H]2CCc3cc(OC)c(OC)c(OC)c3-c3ccc(SC)c(=O)cc32)ccc1O |  |  |  | 5.6 | 16.6 | 24.8 | 10.8 | 5.8 |  |
| COc1cc2c(c(OC)c1OC)-c1ccc(OC)c(=O)cc1[C@@H](NC(C)=O)CC2 [COLCHICINE] | 50 | 62.91 |  | > 300 | 6 | 18 | 9 | 21 | IC50 [15]: 25.3 nM |
| COc1cccc2c1C(=O)c1c(O)c3c(c(O)c1C2=O)C[C@@](O)(C(=O)CO)C[C@@H]3O[C@H]1C[C@H](N)[C@H](O)[C@H](C)O1 [DOXORUBICIN] |  |  |  |  | 11.7 | 34.2 | 16.4 | 14.7 | IC50 [16]: 511 nM; IC50 [17]: 520 nM; IC50 [15]: 936 nM |
